According to patent US6342531B1, “Pharmaceutical composition containing a cysteine protease inhibitor for prophylaxis and therapy of brain tissue impairment” (Senju Pharmaceutical Co., Ltd., priority 1998, dated 2002):
Non-standard residues stand in square brackets, D forms with d. Residues, ends and D or L forms follow the SMILES beside them. *: point of attachment. Nle = CCCC[C@H](N)C(=O)O; Cbz = O=C(OCc1ccccc1)*

Assays:
[1] = tested on: nerve cells in the hippocampal CA1 region; assay: Effect on ischemic disorder of the brain: bilateral common carotid artery occlusion, nerve cell counts in hippocampal CA1 region; assay type: in vivo; conditions: gerbil, 10 min ischemia, 100 mg/kg intraperitoneally 15 min before ischemia, immediately after reperfusion, then once daily, counted 5 days after reperfusion; for ischemia-induced decrease in the number of normal nerve cells in the hippocampal CA1 region: FIG. 1; for ischemia-induced increase in the number of apoptotic nerve cells in the hippocampal CA1 region: FIG. 2
Protocol: The bilateral common carotid arteries of gerbils (male, body weights 60-80 g) were exposed under ether anesthesia. Then, in a conscious state, the carotid arteries were occluded with aneurysm clips to arrest the blood flow for 10 minutes. Ischemia was confirmed by checking the arrest of retinal blood flow with a blood flow meter (Advance laser flow meter (ALF21N), Advance Co. Ltd.) and observation of ischemic symptoms such as seizure, circling, and ptosis. After removal of the clips, reperfusion was confirmed with the blood flow meter. Five days after reperfusion, the animal was anesthetized with ether and was perfused with saline through the left ventricle for removal of blood and further with 4% formaldehyde for fixation of the brain tissue. The tissue was embedded in paraffin and thin sections were prepared and stained with hematoxylin-eosin in the routine manner. The nerve cells in the hippocampal CA1 region were observed under a light microscope and the normal nerve cells remaining in a 1.0 mm span of the hippocampal CA1 region were counted. Separately, using Apoptosis in situ Detection Kit Wako (Wako Pure Chemical Ind., Ltd.), the apoptosis in the paraffin-embedded brain tissue specimen was detected and using the light microscope, the apoptotic nerve cells per 1.0 mm span of the hippocampal CA1 region were counted.
In the normal group, the common carotid arteries were exposed but no ischemia was introduced. As the test drug, a parenteral suspension prepared as in Example 3 was administered intraperitoneally in a dose of 100 mg Compound 1 per kg body weight 15 minutes before ischemia, immediately after reperfusion, and thereafter once daily (Compound 1 administration group). In the control group and normal group, the vehicle used in Example 3 was similarly administered. As a positive control, Cbz-Val-Phe-H [MDL; S. C. Hong et al., Stroke, 25 (3), 663-669 (1994)], 100 mg/kg body weight, was similarly administered (MDL administration group).

[2] = tested on: cytopathy due to cerebral ischemia; conditions: rats, administered intravenously; cited from earlier work
neurons [3] = conditions: administered intraperitoneally; cited from earlier work
[4] = Toxicity study, single oral dose, 14-day observation; assay type: in vivo, Wister rats; conditions: rat, oral 1000 mg/kg
Protocol: Five-week-old Wister rats (male, body weights 80-105 g) were orally given a 3.3 w/v % suspension of Compound 1 in 0.5 w/v % carboxymethylcellulose in a dose of 1000 mg as Compound 1 per kg body weight. […] Body weights were recorded before dosing and once daily for 14 days after dosing. Autopsy was performed after sacrifice by exsanguination under ether anesthesia after 14 days and the organs were grossly examined. The control group received 0.5 w/v % carboxymethylcellulose.

neurons [5] = conditions: directly administered into the animal cerebral ventricle; cited from earlier work

## CC(C)[C@H](NC(=O)OCc1ccccc1)C(=O)N[C@H](C=O)Cc1ccccc1 [MDL, Cbz-Val-Phe-H] (Cbz-Val-Phe-aldehyde)
[1]
  ischemia-induced decrease in the number of normal nerve cells in the hippocampal CA1 region: little inhibitory effect
  ischemia-induced increase in the number of apoptotic nerve cells in the hippocampal CA1 region: little inhibitory effect
[2]
  cytopathy due to cerebral ischemia: inhibited cytopathy

## CCCC[C@@H](C=O)NC(=O)[C@H](CC(C)C)NC(=O)[C@H](CC(C)C)NC(C)=O [calpain inhibitor I] (Ac-Leu-Leu-[Nle]-aldehyde)
Neurons [3]
  protection of neurons from excitotoxic factors: protect neurons from excitotoxic factors

## CC(C)C[C@@H](C=O)NC(=O)[C@@H](NS(=O)(=O)c1ccc(F)cc1)C(C)C [Compound 1, N-(4-fluorophenylsulfonyl)-L-valyl-L-leucinal]
[1]
  ischemia-induced decrease in the number of normal nerve cells in the hippocampal CA1 region: significantly inhibited
  ischemia-induced increase in the number of apoptotic nerve cells in the hippocampal CA1 region: significantly inhibited
[4]; 14 days
  body weight gain versus control group: no difference
[4]; autopsy after 14 days
  autopsy findings versus control group: no difference
[4]; observed 14 days
  general condition and behavior: no change

## CC(=O)N[C@@H](CC(C)C)C(=O)N[C@@H](CC(C)C)C(=O)N[C@H](C=O)CCCNC(=N)N [leupeptin]
Neurons [5]
  protection of neurons against damage by cerebral ischemia: protects neurons against damage
